{"source": "patent US20250049026A1", "about": "“BIOCIDAL COMPOSITIONS WITH HYDRONIUM ION SOURCES FOR BIOFILM CONTROL” (ECOLAB USA INC., priority 2020, published 2025)", "tested_on": "Pseudomonas aeruginosa (ATCC 15442) biofilm", "assay": "Efficacy against biofilm, CDC Biofilm Reactor and Single Tube Method (ASTM E3161-18, ASTM E2871-19)", "format": "cell-based", "conditions": "for Average Log Reduction: 10 min exposure", "experimental": "The efficacy against biofilm was performed as described in the standard test methods ASTM E3161-18 (Standard Practice for Preparing a Pseudomonas aeruginosa or Staphylococcus aureus Biofilm using the CDC Biofilm Reactor) and ASTM E2871-19 (Standard Test Method for Determining Disinfectant Efficacy Against Biofilm Grown in the CDC Biofilm Reactor Using the Single Tube Method). A Pseudomonas aeruginosa (ATCC 15442) biofilm was the organism used for determination of composition efficacy against biofilm on hard non-porous surfaces. Biofilm for composition efficacy was generated as outlined in ASTM E3161-18. A 10 uL sample of a thawed frozen stock culture was used to inoculate 10 mL of sterile 100 mg/L Tryptic Soy Broth (TSB) which was then allowed to incubate for 24±2 hours at 35±2° C. Following growth, a 1 mL sample of this initial culture was used to inoculate a CDC Biofilm Reactor containing borosilicate glass coupons and 500 mL of sterile 300 mg/L TSB. The reactor system was allowed to incubate at room temperature (i.e. 21±2° C.) for 24±2 hours with a baffle rotational speed of 125±5 RPM under Batch Phase as directed in ASTM E3161-18. Following Batch Phase growth, Continuous Flow Phase growth was initiated by continuous pumping of 100 mg/L TSB into the reactor system at an appropriate flow rate to ensure the test organism residence time of 30±2 minutes. The reactor system was allowed to incubate at room temperature (i.e. 21±2° C.) for 24±2 hours with a baffle rotational speed of 125±5 RPM under Continuous Flow Phase as directed in ASTM E3161-18. Following completion of the growth, biofilm test carriers were removed from the CDC Biofilm Reactor, rinsed in sterile buffer to remove any non-adhered cells and individual carriers were placed into sterile 50 mL conical tubes for composition treatment. Determination of compositional efficacy against Pseudomonas aeruginosa biofilm was performed as outlined in ASTM E2871-19. A 4 mL sample of each composition (or sterile buffer for control carriers) was pipetted into each corresponding tube containing a test carrier. Triplicate test carriers were analyzed per composition or control. Test and control carriers were allowed to expose for 10 minutes at room temperature (i.e. 21±2° C.). Following exposure, each carrier was appropriately neutralized with 36 mL of Neutralizing Broth. Neutralized carriers were vortex mixed and sonicated to remove/disaggregate the biofilm from the carrier surface as outlined in ASTM E2871-19. Disaggregated biofilm samples were serially diluted in sterile buffer and spread plated onto appropriate agar for determination of plate counts. Log reductions for each composition were determined by comparing the calculated average Log10 from the set of recovered control carriers to the calculated average Log10 from each set of recovered composition carriers. In addition to carrier control determination, an appropriate Neutralization Confirmation Control was performed for each composition to ensure that the Neutralizing Broth chosen appropriately neutralized the test solution.\nThe various combinations of biocides and hydronium ion (all from sulfuric acid) were evaluated at the use concentration (ppm biocide) pH and moles of hydronium in the use concentration as set forth in Table 2.", "key": {"[1]": {"conditions": "active 100 ppm, pH 2.15, hydronium ion 0.0071 M (sulfuric acid)"}, "[2]": {"conditions": "active 100 ppm, pH 2.50, hydronium ion 0.0032 M (sulfuric acid)"}, "[3]": {"conditions": "active 100 ppm, pH 3.00, hydronium ion 0.001 M (sulfuric acid)"}}, "note": "Marks after values point to notes of the source that are not given here.", "data": [{"compound": "CC(=O)OO", "note": "[POAA, Peroxyacetic acid]", "values": [{"measurement": "micro efficacy", "setting": "220 ppm, without the hydronium ion", "value": "fails to provide sufficient micro efficacy"}, {"measurement": "Average Log Reduction", "setting": "active 110 ppm, pH 2.29, hydronium ion 0.0051 M (sulfuric acid)", "value": 5.94, "unit": "log"}, {"measurement": "Average Log Reduction", "setting": "active 220 ppm, pH 2.00, hydronium ion 0.01 M (sulfuric acid)", "value": "4.45* log"}, {"measurement": "Average Log Reduction", "setting": "active 220 ppm, pH 2.29, hydronium ion 0.0051 M (sulfuric acid)", "value": 8.70, "unit": "log"}, {"measurement": "Average Log Reduction", "setting": "active 220 ppm, pH 2.30, hydronium ion 0.0050 M (sulfuric acid)", "value": 2.42, "unit": "log"}, {"measurement": "Average Log Reduction", "setting": "active 220 ppm, pH 2.45, hydronium ion 0.0035 M (sulfuric acid)", "value": 2.11, "unit": "log"}, {"measurement": "Average Log Reduction", "setting": "active 220 ppm, pH 2.50, hydronium ion 0.0032 M (sulfuric acid)", "value": 2.15, "unit": "log"}, {"measurement": "Average Log Reduction", "setting": "active 220 ppm, pH 2.98, hydronium ion 0.001 M (sulfuric acid)", "value": 2.15, "unit": "log"}, {"measurement": "Average Log Reduction", "setting": "active 220 ppm, pH 3.46, hydronium ion 0.00035 M (sulfuric acid)", "value": 2.15, "unit": "log"}, {"measurement": "Average Log Reduction", "setting": "active 220 ppm, pH 4.20, hydronium ion 0.000063 M [No hydronium ion source], room temperature", "value": 2.15, "unit": "log"}, {"measurement": "Average Log Reduction", "setting": "active 320 ppm, pH 3.45, hydronium ion 0.00035 M (sulfuric acid)", "value": 2.41, "unit": "log"}, {"measurement": "Average Log Reduction", "setting": "active 420 ppm, pH 3.46, hydronium ion 0.00035 M (sulfuric acid)", "value": 2.41, "unit": "log"}, {"measurement": "Average Log Reduction", "setting": "active 520 ppm, pH 3.44, hydronium ion 0.00035 M (sulfuric acid)", "value": 2.41, "unit": "log"}]}, {"compound": "Linear alkylbenzene sulfonate [LAS]", "values": [{"measurement": "Average Log Reduction", "setting": "active 1000 ppm, pH 2.15, hydronium ion 0.0071 M (sulfuric acid)", "value": 5.74, "unit": "log"}, {"measurement": "Average Log Reduction", "setting": "active 1000 ppm, pH 3.02, hydronium ion 0.00095 M (sulfuric acid)", "value": 2.19, "unit": "log"}, {"measurement": "Average Log Reduction", "setting": "active 1000 ppm, pH 7.48, hydronium ion 0.0000 M", "value": 2.07, "unit": "log"}, {"measurement": "Average Log Reduction", "setting": "active 2000 ppm, pH 7.48, hydronium ion 0.0000 M", "value": 2.41, "unit": "log"}, {"measurement": "Average Log Reduction", "setting": "active 3000 ppm, pH 7.46, hydronium ion 0.0000 M", "value": 2.41, "unit": "log"}, {"measurement": "Average Log Reduction", "setting": "active 4000 ppm, pH 7.48, hydronium ion 0.0000 M", "value": 2.41, "unit": "log"}]}, {"compound": "CCCCCCCC(=O)O", "note": "[Octanoic acid]", "values": [{"measurement": "Average Log Reduction", "setting": "[1]", "value": 4.28, "unit": "log"}, {"measurement": "Average Log Reduction", "setting": "[2]", "value": 7.59, "unit": "log"}, {"measurement": "Average Log Reduction", "setting": "[3]", "value": 2.19, "unit": "log"}, {"measurement": "Average Log Reduction", "setting": "active 100 ppm, pH 6.43, hydronium ion 0.0000 M", "value": 2.07, "unit": "log"}, {"measurement": "Average Log Reduction", "setting": "active 200 ppm, pH 6.43, hydronium ion 0.0000 M", "value": 2.15, "unit": "log"}, {"measurement": "Average Log Reduction", "setting": "active 300 ppm, pH 6.43, hydronium ion 0.0000 M", "value": 2.15, "unit": "log"}, {"measurement": "Average Log Reduction", "setting": "active 400 ppm, pH 6.43, hydronium ion 0.0000 M", "value": 2.15, "unit": "log"}]}, {"compound": "CCCCCCCC(=O)OO", "note": "[POOA, Peroxyoctanoic acid]", "values": [{"measurement": "Average Log Reduction", "setting": "[1]", "value": 8.43, "unit": "log"}, {"measurement": "Average Log Reduction", "setting": "[2]", "value": 7.24, "unit": "log"}, {"measurement": "Average Log Reduction", "setting": "[3]", "value": 2.19, "unit": "log"}, {"measurement": "Average Log Reduction", "setting": "active 100 ppm, pH 5.45, hydronium ion 0.0000 M", "value": 1.95, "unit": "log"}]}]}
